Results taken from US9057093B2 (priority 2010, dated 2015).
Like-named read-outs stand apart in the source and are kept apart here.

Tested on: Legionella pneumophila strains
Type: cell-based
Details: for optimal dose: dose giving best improvement in latency and/or growth rate
[1] = doses of between 10^−6 to 10^−2 mM, especially 10^−4 mM, numerous strains
[2] = supplemented medium vs reference medium (YEC), doses between 0.01 and 5% weight of compound on volume of sample, variety of strains

Row | SMILES | latency and/or growth rate (doses of between 1 to 10^−4 mM, especially around 10^−2 mM, a number of strains) | latency and/or growth rate [1] | optimal dose | latency and/or growth rate [2]
1 | [Cl-].[K+] [potassium chloride] | Improvements in latency and/or growth rate |  |  | 
2 | [Cl-].[Cl-].[Mg+2] [magnesium chloride] |  | Improvements in latency and/or growth rate |  | 
3 | [Ca+2].[Cl-].[Cl-] [calcium chloride] |  | Improvements in latency and/or growth rate |  | 
4 | N[C@@H](CO)C(=O)O [serine] |  |  | around 1 g per litre | improvements in latency and/or growth rate
5 | C[C@@H](O)[C@H](N)C(=O)O [threonine] |  |  | around 1 g per litre | improvements in latency and/or growth rate
